Reference: patent US20250388495A1, “WATER SA[…], SYSTEM AND METHOD” (WATERCO LIMITED, priority 2020, published 2025)

Key:
[1] = Monitoring of H2O2 and ClO2 levels in the test tank during the efficacy test; format: physicochemical
Source text: An apparatus was set up to simulate swimming pool conditions and followed the Australian Pesticides and Veterinary Medicines Authority (APMVA) guidelines. A water tank filled with 180 litres of water recirculates via an ECO 100 pump (Waterco) set at low speed. A Hydrochlor® head unit (Waterco) is connected to a 13-plate low salt cell which is set to run at 100% during the test. A Digiheat unit (Waterco) is set up to control temperature during the tests. A FlowVis® valve (Waterco) was used to estimate flow rate through the apparatus. […] A Kemio™ test kit (Palintest) was used to monitor chlorine dioxide levels. A WDPHRH PER Swimming Pool controller was used to monitor pH and oxidation-reduction potential (ORP) during the tests.

[2] = Field trials: stability of chlorine dioxide in water with hydrogen peroxide; format: physicochemical
Source text: For example, field trials indicate that chlorine dioxide will last in water up to 5 times longer when used in conjunction with hydrogen peroxide.
The process allows chlorine dioxide to remain active in water for up to and beyond 5 days.

[3] = produced by electrolysis with hydrogen peroxide present

SMILES	effect of the spike of pathogens on the level of the sanitiser [1]	effect of ultraviolet light on chlorine dioxide residual in the water [2, 3]	time chlorine dioxide remains active in water [2, 3]	effect of agitation on chlorine dioxide levels ([2]; used in conjunction with hydrogen peroxide)	how much longer chlorine dioxide will last in water ([2]; used in conjunction with hydrogen peroxide, field trials)
OO [Hydrogen peroxide]	minimal	–	–	–	–
[O][Cl+][O-] [chlorine dioxide]	dramatically affected	does not diminish	≥ 5 days	not affected by agitation	up to 5 times longer
